Where two headings read alike, the source gives them in different places. Where a SMILES comes first, the peptide text is derived from it. Side-chain parts run from the residue outwards. [ ]: non-standard residue; d: D form. The star is where a group is joined. DOTA = O=C(O)CN1CCN(CC(=O)O)CCN(CC(=O)*)CCN(CC(=O)O)CC1; dTyr(3-I) = N[C@H](Cc1ccc(O)c(I)c1)C(=O)O; 2Nal = N[C@@H](Cc1ccc2ccccc2c1)C(=O)O; dNMeOrn = CN[C@H](CCCN)C(=O)O; 4Abz = Nc1ccc(C(=O)O)cc1
Experiment: Biodistribution in Daudi xenograft bearing mice
Assay type: in vivo, mouse
Conditions: female, CB-17 SCID, mouse, iv, total radioactivity, means ± SD; for tissue uptake at 6 h: 6h p.i.; for tissue uptake at 48 h / tissue to tissue ratio at 48 h: 48h p.i.; for tissue to tissue ratio at 48 h: n=4-5 animals
Protocol: The biodistribution of selected compounds was investigated in Daudi (human B-cell lymphoma) xenograft bearing female CB-17 SCID mice (6-8 weeks, Charles River, Sulzfeld, Germany), [29]. All animal experiments were performed in accordance with current animal welfare regulations in Germany (approval #55.2-1-54-2532-71-13).
Animals (n=4-5 per group) were injected intravenously with 5-10 MBq (0.08-0.11 nmol peptide per mouse) of the respective ^68Ga- and^ 177Lu-labeled CXCR4 ligands in PBS (100 µL) into the tail vein under isoflurane anesthesia. CXCR4-specificity of binding was determined by coinjection of 50 µg AMD3100 per mouse. The animals were sacrificed 1, 6 and 48h post injection (p.i.), and the organs of interest were dissected. The radioactivity was measured in weighted tissue samples using a γ-counter. Data are expressed in % ID/g tissue (mean ± SD).

[1] = adrenals, i.v., n=4-5, read-out: Biodistribution adrenals
[2] = blood, i.v., n=4-5, read-out: Biodistribution blood
[3] = colon, i.v., n=4-5, read-out: Biodistribution colon
[4] = femur, i.v., n=4-5, read-out: Biodistribution femur
[5] = heart, i.v., n=4-5, read-out: Biodistribution heart
[6] = kidney, i.v., n=4-5, read-out: Biodistribution kidney
[7] = liver, i.v., n=4-5, read-out: Biodistribution liver
[8] = lung, i.v., n=4-5, read-out: Biodistribution lung
[9] = muscle, i.v., n=4-5, read-out: Biodistribution muscle
[10] = pancreas, i.v., n=4-5, read-out: Biodistribution pancreas
[11] = small intestine, i.v., n=4-5, read-out: Biodistribution small intestine
[12] = spleen, i.v., n=4-5, read-out: Biodistribution spleen
[13] = stomach, i.v., n=4-5, read-out: Biodistribution stomach
[14] = tumor (Daudi xenograft), i.v., n=4-5, read-out: Biodistribution tumor (Daudi xenograft)

`C[C@@H](NC(=O)[C@@H](CCCNC(=N)N)NC(=O)CN1CCN(CC(=O)O)CCN(CC(=O)O)CCN(CC(=O)O)CC1)C(=O)Nc1ccc(C(=O)NCCC[C@@H]2C(=O)N[C@@H](CCCNC(=N)N)C(=O)N[C@@H](Cc3ccc4ccccc4c3)C(=O)NCC(=O)N[C@H](Cc3ccc(O)c(I)c3)C(=O)N2C)cc1` [[^177Lu]DOTA-r-a-ABA-iodoCPCR4, metal not drawn] (cyclo([2Nal]G[dTyr(3-I)][dNMeOrn]([4Abz-dA-dR-DOTA])R)) gave a tissue uptake at 6 h [1] of 0.68 ± 0.21 %ID/g, a tissue uptake at 48 h [1] of 0.6 ± 0.12 %ID/g and a tissue uptake at 6 h [2] of 0.17 ± 0.09 %ID/g. It also gave a tissue uptake at 48 h [2] of 0.03 ± 0.01 %ID/g, a tissue uptake at 1 h (brain, 1h p.i., tracer only, i.v., γ-counter, n=4-5, read-out: Biodistribution brain) of 0.08 ± 0.01 %ID/g and a tissue uptake at 6 h [3] of 0.49 ± 0.2 %ID/g. It also gave a tissue uptake at 48 h [3] of 0.43 ± 0.3 %ID/g, a tissue uptake at 6 h [4] of 0.56 ± 0.23 %ID/g and a tissue uptake at 48 h [4] of 0.34 ± 0.08 %ID/g. For the same molecule, the tissue uptake at 6 h [5] was 0.28 ± 0.05 %ID/g, the tissue uptake at 48 h [5] was 0.19 ± 0.02 %ID/g and the tissue uptake at 6 h [6] was 3.2 ± 0.45 %ID/g. The tissue uptake at 48 h [6] was 2.58 ± 0.69 %ID/g, the tissue uptake at 6 h [7] was 17.1 ± 3.09 %ID/g and the tissue uptake at 48 h [7] was 14.6 ± 2 %ID/g. It also gave a tissue uptake at 6 h [8] of 1.07 ± 0.26 %ID/g, a tissue uptake at 48 h [8] of 0.57 ± 0.04 %ID/g and a tissue uptake at 6 h [9] of 0.06 ± 0.01 %ID/g. It also gave a tissue uptake at 48 h [9] of 0.04 %ID/g, a tissue uptake at 6 h [10] of 0.11 ± 0.02 %ID/g and a tissue uptake at 48 h [10] of 0.09 ± 0.01 %ID/g. For the same molecule, the tissue uptake at 6 h [11] was 0.24 ± 0.06 %ID/g, the tissue uptake at 48 h [11] was 0.16 ± 0.06 %ID/g and the tissue uptake at 6 h [12] was 2.95 ± 0.75 %ID/g. It also gave a tissue uptake at 48 h [12] of 2.72 ± 0.5 %ID/g, a tissue uptake at 6 h [13] of 0.25 ± 0.09 %ID/g and a tissue uptake at 48 h [13] of 0.14 ± 0.02 %ID/g. It also gave a tissue uptake at 6 h [14] of 12.5 ± 2.56 %ID/g, a tissue uptake at 48 h [14] of 8.11 ± 0.96 %ID/g and a tissue to tissue ratio at 48 h (tumor / blood, read-out: Tumor/organ ratio t/blood) of 320 ± 104. For the same molecule, the tissue to tissue ratio at 48 h (tumor / colon, read-out: Tumor/organ ratio t/colon) was 19 ± 13, the tissue to tissue ratio at 48 h (tumor / heart, read-out: Tumor/organ ratio t/heart) was 42 ± 7 and the tissue to tissue ratio at 48 h (tumor / kidney, read-out: Tumor/organ ratio t/kidney) was 3.1 ± 0.9. The tissue to tissue ratio at 48 h (tumor / liver, read-out: Tumor/organ ratio t/liver) was 0.6 ± 0.1, the tissue to tissue ratio at 48 h (tumor / lung, read-out: Tumor/organ ratio t/lung) was 14 ± 2 and the tissue to tissue ratio at 48 h (tumor / muscle, read-out: Tumor/organ ratio t/muscle) was 226 ± 36. For the same molecule, the tissue to tissue ratio at 48 h (tumor / small intestine, read-out: Tumor/organ ratio t/small intestine) was 50 ± 20, the tissue to tissue ratio at 48 h (tumor / spleen, read-out: Tumor/organ ratio t/spleen) was 3 ± 0.7 and the tissue to tissue ratio at 48 h (tumor / stomach, read-out: Tumor/organ ratio t/stomach) was 58 ± 12.

From publication PMC7381729, “A new class of PentixaFor- and PentixaTher-based theranostic agents with enhanced CXCR4-targeting efficiency” (Theranostics, 2020)
